Measured values published in US20230338316A1, “ABBAPOLINS AS INHIBITORS AND DEGRADERS OF POLO-LIKE KINASES” (UNIVERSITY OF SOUTH CAROLINA, priority 2022, published 2023).

Legend:
HOP-92 = assay: Single dose cell viability assay, HOP-92; type: cell-based; settings: HOP-92 (NSCLC), single dose 10 μM
Experimental: (§1) Lead abbapolin compounds were tested in multiple cancer cell lines, including non-small cell lung cancer (NSCLC) cells, melanoma cells, colon cancer cells, central nervous system (CNS) cancer cells, prostate cancer cells, renal cancer cells, and breast cancer cells. Each of these cancer cells lines were sensitive to the lead abbapolin compounds in a cell viability assay, including 6184 (Table 3), 6277 (Table 4), 6279 (Table 5), 6355 (Table 6), 6359 (Table 7), 6369 (Table 8), and 6421 (Table 9).

PLK1 [1] = biological target: T1, PLK1 (Homo sapiens, UniProt P53350); assay: Cellular thermal shift assay (CETSA); type: cell-based; parameters: endogenous in cells; host or cells: PC3 prostate cancer cells
Experimental: Cellular thermal shift assay (CETSA) was performed with PC3 cells cultured in RPMI medium supplemented with 10% FBS. For an initial determination of the melting profile of PLK1 AND PLK3, cells dispensed into 96-well PCR plates in the above medium (6000 cells/well in 50 μL) were subjected to temperature gradient (38-60° C.) for 10 min. […] Centrifugation was performed at 14000 rpm to sediment the denatured protein content. Supernatant was collected and subjected to SDS-PAGE, and immunodetection was performed using anti-PLK1 and anti-PLK3 antibodies. PLK1 and PLK3 bands were quantified on a LI-COR C-Digit Blot Scanner, and Tagg and Tagg values were calculated for both proteins. In subsequent experiments, cells were treated at increasing doses (3.0, 1.0, 0.3, 0.1, 0.03 μM) of inhibitors together with DMSO control, for 2 h. Cells were then subjected to heat shock at Tagg for 10 min, and unstable protein was removed by centrifugation step. Following immuno-blotting, bands of stable PLK1 and PLK3 were quantified, normalized to loading control and plotted using GraphPad Prism software. EC50 values for inhibitors were calculated. […] The EC50 of the peptides were determined from the curve fit of the dose response.

[2] = Tolerability in the PC3 xenograft study; type: in vivo, athymic nude mice
Experimental: (§2) The efficacy of promising abbapolin compounds were tested in multiple cancer cell lines. […] To do so, athymic nude mice were injected in their flanks with 2.7×10^6 PC3 prostate cancer cells. After the tumors established at 13 days, 5-8 mice per group were treated with 6359 and 6369 daily for 5 days (M-F) for a total of 15 days. […] This is in agreement with the PLK1 degradation in the xenograft tumor.

[3] = test system: PC3 prostate cancer xenografts; assay: PC3 prostate cancer xenograft study; type: in vivo, athymic nude mice
Experimental: as §2

HL-60(TB) = assay: Single dose cell viability assay, HL-60(TB); type: cell-based; settings: HL-60(TB) (Leukemia), single dose 10 μM
Experimental: as §1

[4] = test system: SH-SY5Y neuroblastoma cells overexpressing PLK1; assay: Cell viability assay in neuroblastoma cells; type: cell-based
Experimental: (§3) Abbapolin compounds activity was evaluated in neuroblastoma cells. […] Further, abbapolins induced PLK1 degradation in SH-SY5Y cells (FIG. 14-16).

PLK1 [5] = biological target: T1, PLK1; assay: PLK1 degradation in PC3 cells; type: cell-based; parameters: endogenous in cells; host or cells: PC3 prostate cancer cells; settings: PC3 cell line, 24 hours
Experimental: For example, PC3 cells were treated with varying dosages of abbapolin 6369, and percent of PLK1 degradation was measured at 24 hours (FIGS. 8A-8B). HeLa cells were treated with 25 μM abbapolin 6369, and time points shown in the assay were 24 hours, 48 hours, and 72 hours (FIGS. 9A-9B). PC3 cells were treated with varying dosages of abbapolin 6329, and percent of PLK1 degradation was measured at 24 hours (FIGS. […]). HeLa cells were treated with varying dosages of abbapolin 6329, and time points shown in the assay were 24 hours, 48 hours, and 72 hours (FIGS. 11A-11B).

UO-31 = assay: Single dose cell viability assay, UO-31; type: cell-based; settings: UO-31 (Renal), single dose 10 μM
Experimental: as §1

[6] = test system: HeLa cervical cancer cells; assay: MTT cell viability assay, HeLa; type: cell-based; settings: p53 MT, PTEN WT
Excerpt: HeLa cervical cancer cells were obtained from ATCC (Manassas, VA). Histone H2B GFP-labeled HeLa cells (HeLa-H2B-GFP) were kindly provided by Dr. Geoffrey Wahl (Gene Expression Laboratory, Salk Institute), and were confirmed as >95% GFP positive by FACS (data not shown) but were not otherwise authenticated. Cells were maintained in DMEM (Invitrogen™, Carlsebad, CA) supplemented with 10% FBS or Corning® Nu-serum™ (BD™ Biosciences, Franklin Lakes, NJ) and 1% penicillin/streptomycin (Invitrogen™) in a humidified incubator and 5% CO2 at 37° C.
(§4) Exponentially growing cells were plated in 96-well dishes. Dose response curves were used to treat cells for 72 hours with inhibitors. Following the three-day treatment, cell viability was measured using the MTT (3-(4,5-dimethylthiazol-2-yl)-2,5-diphenyltetrazolium bromide) colorimetric assay. Cells were incubated for 3 hours with MTT allowing viable cells to metabolize the tetrazolium dye to a purple colored solution. Absorbance measurements (595 nm) were quantified using a DTX 880 plate reader and IC50 values were generated for FLIPs.

NCI-H522 = assay: Single dose cell viability assay, NCI-H522; type: cell-based; settings: NCI-H522 (NSCLC), single dose 10 μM
Experimental: as §1

apoptosis = assay: Cell cycle analysis and caspase apoptosis assay; type: cell-based; settings: versus negative control
Excerpt: Disclosed small molecule inhibitors can also encourage apoptosis.

RPMI-8226 = assay: Single dose cell viability assay, RPMI-8226; type: cell-based; settings: RPMI-8226 (Leukemia), single dose 10 μM
Experimental: as §1

[7] = test system: PC3 prostate cancer cells; assay: MTT cell viability assay, PC3; type: cell-based; settings: MTT, 72 hours
Experimental: PC3 prostate cancer cells were maintained in DMEM (Invitrogen™, Carlsebad, CA) supplemented with 10% FBS or Corning® Nu-serum™(BD™ Biosciences, Franklin Lakes, NJ) and 1% penicillin/streptomycin (Invitrogen™) in a humidified incubator and 5% CO2 at 37° C.
as §4

PLK1 [8] = biological target: T1, PLK1; assay: PLK1 degradation in SH-SY5Y cells; type: cell-based; parameters: endogenous in cells
Experimental: as §3

[9] = 6359 100 mg/kg oral, 6369 40 mg/kg IP, 15 days

T1 sequence (P53350 whole entry): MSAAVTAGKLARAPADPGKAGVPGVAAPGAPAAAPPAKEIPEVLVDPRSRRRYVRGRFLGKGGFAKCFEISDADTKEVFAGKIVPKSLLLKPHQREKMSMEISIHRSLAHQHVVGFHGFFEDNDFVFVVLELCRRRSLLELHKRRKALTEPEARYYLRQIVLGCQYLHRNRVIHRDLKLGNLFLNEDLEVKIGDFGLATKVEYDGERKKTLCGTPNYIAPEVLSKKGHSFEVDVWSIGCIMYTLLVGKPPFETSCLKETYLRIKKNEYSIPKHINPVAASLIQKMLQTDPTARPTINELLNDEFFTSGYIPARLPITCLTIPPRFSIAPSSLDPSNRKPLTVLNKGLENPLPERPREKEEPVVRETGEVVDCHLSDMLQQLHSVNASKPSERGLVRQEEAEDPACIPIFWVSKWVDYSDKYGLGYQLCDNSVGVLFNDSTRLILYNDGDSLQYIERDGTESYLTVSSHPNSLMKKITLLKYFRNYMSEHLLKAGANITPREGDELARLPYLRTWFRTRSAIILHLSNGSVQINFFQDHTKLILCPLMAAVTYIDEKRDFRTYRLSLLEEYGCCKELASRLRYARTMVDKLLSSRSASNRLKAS

3-(4-octylbenzamido)phenyl phosphate [compound 6369]
Cells Remaining (%) (HOP-92): 43.19% | EC50 (PLK1 [1]): 0.15 µM | body weight [2, 9]: no loss of body weight | tolerability / toxicity [2, 9]: well tolerated | change in liver, kidney, and prostate weight ([2]; P>0.05): non-significant | growth of PC3 tumors ([3]; 6359 100 mg/kg oral gavage, 6369 40 mg/kg IP, daily 5 days (M-F), total 15 days): slow the growth of PC3 tumors | PLK1 loss in the xenograft tumor ([3]; isolated PC3 xenograft tumors): significantly more PLK1 loss compared to PBS and 6359 | Cells Remaining (%) (HL-60(TB)): 54.82% | IC50 [4]: 232 ± 55 µM | PLK1 degradation (PLK1 [5]): degradation of PLK1 | Cells Remaining (%) (UO-31): 46.64% | IC50 [6]: 17.5 ± 2.9 µM | Cells Remaining (%) (NCI-H522): 33.06% | levels of apoptosis (apoptosis): high levels of apoptosis | Cells Remaining (%) (RPMI-8226): 39.13% | IC50 [7]: 2.3 ± 0.9 µM | PLK1 degradation (PLK1 [8]): degradation of PLK1
